Laboratory results taken from ChEMBL document CHEMBL1201862, “PubChem BioAssay data set” (2004).
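All cell lines were grown in 96-well plates and treated with compound for 48 hours. The concentration for 50% growth inhibition is given as GI50.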 Activity calls are given as the source filed them. Rule as the data show it: active = GI50 up to about 1.1 µM and inactive = higher.

Key:
Assay in all cases: inhibition of tumour cell growth, NCI panel, 48 h
U-251 = test system: U-251
MDA-MB-435 = test system: MDA-MB-435
SF-539 = test system: SF-539
NCI-H460 = test system: NCI-H460
HT-29 = test system: HT-29
DU-145 = test system: DU-145
EKVX = test system: EKVX
NCI-H23 = test system: NCI-H23
A549 = test system: A549
UO-31 = test system: UO-31
786-0 = test system: 786-0
RXF 393 = test system: RXF 393
HOP-62 = test system: HOP-62
SN12C = test system: SN12C
KM12 = test system: KM12
NCI-H522 = test system: NCI-H522
HOP-92 = test system: HOP-92
SW-620 = test system: SW-620
SF-295 = test system: SF-295
SK-MEL-2 = test system: SK-MEL-2
LOX IMVI = test system: LOX IMVI
M14 = test system: M14
A498 = test system: A498
SF-268 = test system: SF-268
TK-10 = test system: TK-10
UACC-62 = test system: UACC-62
CCRF-CEM = test system: CCRF-CEM
SK-OV-3 = test system: SK-OV-3
HCT-116 = test system: HCT-116
ACHN = test system: ACHN
SNB-19 = test system: SNB-19
NCI/ADR-RES = test system: NCI/ADR-RES
IGROV-1 = test system: IGROV-1
K562 = test system: K562
Malme-3M = test system: Malme-3M
COLO 205 = test system: COLO 205
NCI-H226 = test system: NCI-H226
MCF7 = test system: MCF7
BT-549 = test system: BT-549
HCT-15 = test system: HCT-15
MOLT-4 = test system: MOLT-4
MDA-N = test system: MDA-N
SK-MEL-5 = test system: SK-MEL-5
OVCAR-3 = test system: OVCAR-3
OVCAR-8 = test system: OVCAR-8
SK-MEL-28 = test system: SK-MEL-28
PC-3 = test system: PC-3
OVCAR-5 = test system: OVCAR-5
SNB-75 = test system: SNB-75
MDA-MB-231 = test system: MDA-MB-231
T47D = test system: T47D
SR = test system: SR
CAKI-1 = test system: CAKI-1
HCC 2998 = test system: HCC 2998
OVCAR-4 = test system: OVCAR-4
UACC-257 = test system: UACC-257
RPMI-8226 = test system: RPMI-8226
Hs-578T = test system: Hs-578T
HL-60 = test system: HL-60

In the case of `CN1CCCOC(c2ccc([N+](=O)[O-])cc2)O1` (centres undefined), the GI50 (U-251) is reported as > 100 µM (inactive), the GI50 (MDA-MB-435) is reported as > 100 µM (inactive) and the GI50 (SF-539) is reported as > 100 µM (inactive). For the same molecule, the GI50 (NCI-H460) was > 100 µM (inactive), the GI50 (HT-29) was > 100 µM (inactive) and the GI50 (DU-145) was > 100 µM (inactive). For the same molecule, the GI50 (EKVX) was > 100 µM (inactive), the GI50 (NCI-H23) was > 100 µM (inactive) and the GI50 (A549) was > 100 µM (inactive). The GI50 (UO-31) was > 100 µM (inactive), the GI50 (786-0) was > 100 µM (inactive) and the GI50 (RXF 393) was > 100 µM (inactive). For the same molecule, the GI50 (HOP-62) was > 100 µM (inactive), the GI50 (SN12C) was > 100 µM (inactive) and the GI50 (KM12) was > 100 µM (inactive). For the same molecule, the GI50 (NCI-H522) was > 100 µM (inactive), the GI50 (HOP-92) was > 100 µM (inactive) and the GI50 (SW-620) was > 100 µM (inactive). For the same molecule, the GI50 (SF-295) was > 100 µM (inactive), the GI50 (SK-MEL-2) was > 100 µM (inactive) and the GI50 (LOX IMVI) was > 100 µM (inactive). The GI50 (M14) was > 100 µM (inactive), the GI50 (A498) was > 100 µM (inactive) and the GI50 (SF-268) was > 100 µM (inactive). The GI50 (TK-10) was > 100 µM (inactive), the GI50 (UACC-62) was > 100 µM (inactive) and the GI50 (CCRF-CEM) was > 100 µM (inactive). For the same molecule, the GI50 (SK-OV-3) was > 100 µM (inactive), the GI50 (HCT-116) was > 100 µM (inactive) and the GI50 (ACHN) was > 100 µM (inactive). For the same molecule, the GI50 (SNB-19) was > 100 µM (inactive), the GI50 (NCI/ADR-RES) was > 100 µM (inactive) and the GI50 (IGROV-1) was > 100 µM (inactive). The GI50 (K562) was > 100 µM (inactive), the GI50 (Malme-3M) was > 100 µM (inactive) and the GI50 (COLO 205) was > 100 µM (inactive). For the same molecule, the GI50 (NCI-H226) was > 100 µM (inactive), the GI50 (MCF7) was > 100 µM (inactive) and the GI50 (BT-549) was > 100 µM (inactive). The GI50 (HCT-15) was > 100 µM, the GI50 (MOLT-4) was > 100 µM (inactive) and the GI50 (MDA-N) was > 100 µM (inactive). For the same molecule, the GI50 (SK-MEL-5) was > 100 µM (inactive), the GI50 (OVCAR-3) was > 100 µM (inactive) and the GI50 (OVCAR-8) was > 100 µM (inactive). For the same molecule, the GI50 (SK-MEL-28) was > 100 µM (inactive), the GI50 (PC-3) was > 100 µM (inactive) and the GI50 (OVCAR-5) was > 100 µM (inactive). For the same molecule, the GI50 (SNB-75) was > 100 µM (inactive), the GI50 (MDA-MB-231) was > 100 µM (inactive) and the GI50 (T47D) was > 100 µM (inactive). The GI50 (SR) was > 100 µM (inactive), the GI50 (CAKI-1) was > 100 µM (inactive) and the GI50 (HCC 2998) was > 100 µM (inactive). The GI50 (OVCAR-4) was > 100 µM (inactive) and the GI50 (UACC-257) was > 100 µM (inactive).

For `CC(=O)/C(=C\NC(=S)Nc1ccc(S(N)(=O)=O)cc1)C(=O)Nc1ccccc1C`, the GI50 (U-251) was 45 µM (inactive), the GI50 (MDA-MB-435) was 32.3 µM (inactive) and the GI50 (SF-539) was 74 µM (inactive). For the same molecule, the GI50 (NCI-H460) was 27 µM (inactive), the GI50 (HT-29) was 45.2 µM (inactive) and the GI50 (DU-145) was 57.7 µM (inactive). The GI50 (EKVX) was 66.5 µM (inactive), the GI50 (NCI-H23) was 71.3 µM (inactive) and the GI50 (A549) was 60.4 µM (inactive). The GI50 (UO-31) was 32.4 µM (inactive), the GI50 (786-0) was 41.9 µM (inactive) and the GI50 (RPMI-8226) was 30.3 µM (inactive). The GI50 (RXF 393) was 37.1 µM (inactive), the GI50 (HOP-62) was 95.3 µM (inactive) and the GI50 (SN12C) was 71 µM (inactive). The GI50 (Hs-578T) was 61.8 µM (inactive), the GI50 (KM12) was 43.3 µM (inactive) and the GI50 (NCI-H522) was 41.7 µM (inactive). The GI50 (HOP-92) was 37.3 µM (inactive), the GI50 (SW-620) was 37.4 µM (inactive) and the GI50 (SF-295) was 36 µM (inactive). For the same molecule, the GI50 (SK-MEL-2) was 51.9 µM (inactive), the GI50 (LOX IMVI) was 20 µM (inactive) and the GI50 (M14) was 37.8 µM (inactive). For the same molecule, the GI50 (SF-268) was 99.8 µM (inactive), the GI50 (TK-10) was 88.7 µM (inactive) and the GI50 (UACC-62) was 35.2 µM (inactive). The GI50 (CCRF-CEM) was 16 µM (inactive), the GI50 (SK-OV-3) was 34.2 µM (inactive) and the GI50 (HCT-116) was 40.5 µM (inactive). For the same molecule, the GI50 (ACHN) was 52.5 µM (inactive), the GI50 (SNB-19) was 84.3 µM (inactive) and the GI50 (NCI/ADR-RES) was > 100 µM (inactive). For the same molecule, the GI50 (IGROV-1) was 55.3 µM (inactive), the GI50 (K562) was 32.4 µM (inactive) and the GI50 (COLO 205) was 18.5 µM (inactive). The GI50 (NCI-H226) was 60.3 µM (inactive), the GI50 (MCF7) was 40.7 µM (inactive) and the GI50 (BT-549) was 33.9 µM (inactive). For the same molecule, the GI50 (HCT-15) was 41.3 µM, the GI50 (MOLT-4) was 28.5 µM (inactive) and the GI50 (SK-MEL-5) was 44 µM (inactive). For the same molecule, the GI50 (OVCAR-3) was 64.7 µM (inactive), the GI50 (OVCAR-8) was 72.9 µM (inactive) and the GI50 (PC-3) was 38.2 µM (inactive). The GI50 (OVCAR-5) was 99.3 µM (inactive), the GI50 (MDA-MB-231) was 34.2 µM (inactive) and the GI50 (T47D) was 28.7 µM (inactive). For the same molecule, the GI50 (CAKI-1) was 37.8 µM (inactive), the GI50 (HCC 2998) was 54.8 µM (inactive) and the GI50 (OVCAR-4) was 36.9 µM (inactive). For the same molecule, the GI50 (HL-60) was 16.1 µM (inactive) and the GI50 (UACC-257) was 71.6 µM (inactive).
